# What was measured:
# human PI3Kα protein = target: T1, human PI3Kα protein (Homo sapiens, UniProt P42336); experiment: PI3Kα enzyme assay (ADP-Glo); format: biochemical; conditions: read-out: PI3Kα enzyme inhibitory activity
# T1 construct: purchased Carna Biosciences, Inc; host or cells: baculovirus expression system
# Outline: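 Biotinylated human PI3Kα (baculovirus-expressed, 4.5 nmol/L) pre-incubated 15 min with compound in Tris-HCl pH 7.5, MgCl2, BSA; reaction 60 min at 25° C with 50 μmol/L PIP2 and 100 μmol/L ATP final. ADP quantified by ADP-Glo luminescence; IC50 calculated.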
# [1] = target: T2, GST fusion human ERK2 protein (Homo sapiens, UniProt P28482); experiment: ERK2 enzyme assay (1); format: biochemical; conditions: ERK2 enzyme assay (1); read-out: ERK2 enzyme inhibitory activity (1)
# T2 construct: purchased Carna Biosciences, Inc; host or cells: E. coli expression system
# Outline: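 IC50 derived from the proportion of phosphorylated 5-FAM peptide, separated from unphosphorylated peptide by microfluidic mobility shift. Compound was first preincubated 15 min at room temperature with 2.5 nmol/L kinase at pH 7.5, then 43.1 μmol/L ATP plus 4.25 μmol/L substrate reacted 120 min at 25 °C.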
# CHO-K1 cells = experiment: CHO cell toxicity test; format: cell-based, Chinese hamster; conditions: Cricetulus griseus; CHO-K1 cells, 24 hours culture with compound, CellTiter-Glo; read-out: IC50 value (concentration at which the number of viable cells was suppressed to 50% or less)
# Outline: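 CHO-K1 cells were cultured 24 h, then exposed 24 h to compound at final 25.00 to 0.20 μmol/L in F-12 with 2% FCS. Viability read by CellTiter-Glo luminescence; inhibition % = 100 − (treated/untreated signal)×100.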
# [2] = target: T2, GST fusion human ERK2 protein; experiment: ERK2 enzyme assay (2); format: biochemical; conditions: ERK2 enzyme assay (2); read-out: ERK2 enzyme inhibitory activity (2)
# Outline: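 IC50 values come from mobility-shift measurement of phosphorylated versus unphosphorylated 5-FAM peptide substrate after EDTA quench. Beforehand, compound and 1.25 nmol/L E. coli-expressed GST–human ERK2 stood 15 min at room temperature (pH 7.5), then 1 mmol/L ATP and 4.25 μmol/L substrate (final) were added for 120 min at 25 °C.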
# T1 sequence (P42336 whole entry): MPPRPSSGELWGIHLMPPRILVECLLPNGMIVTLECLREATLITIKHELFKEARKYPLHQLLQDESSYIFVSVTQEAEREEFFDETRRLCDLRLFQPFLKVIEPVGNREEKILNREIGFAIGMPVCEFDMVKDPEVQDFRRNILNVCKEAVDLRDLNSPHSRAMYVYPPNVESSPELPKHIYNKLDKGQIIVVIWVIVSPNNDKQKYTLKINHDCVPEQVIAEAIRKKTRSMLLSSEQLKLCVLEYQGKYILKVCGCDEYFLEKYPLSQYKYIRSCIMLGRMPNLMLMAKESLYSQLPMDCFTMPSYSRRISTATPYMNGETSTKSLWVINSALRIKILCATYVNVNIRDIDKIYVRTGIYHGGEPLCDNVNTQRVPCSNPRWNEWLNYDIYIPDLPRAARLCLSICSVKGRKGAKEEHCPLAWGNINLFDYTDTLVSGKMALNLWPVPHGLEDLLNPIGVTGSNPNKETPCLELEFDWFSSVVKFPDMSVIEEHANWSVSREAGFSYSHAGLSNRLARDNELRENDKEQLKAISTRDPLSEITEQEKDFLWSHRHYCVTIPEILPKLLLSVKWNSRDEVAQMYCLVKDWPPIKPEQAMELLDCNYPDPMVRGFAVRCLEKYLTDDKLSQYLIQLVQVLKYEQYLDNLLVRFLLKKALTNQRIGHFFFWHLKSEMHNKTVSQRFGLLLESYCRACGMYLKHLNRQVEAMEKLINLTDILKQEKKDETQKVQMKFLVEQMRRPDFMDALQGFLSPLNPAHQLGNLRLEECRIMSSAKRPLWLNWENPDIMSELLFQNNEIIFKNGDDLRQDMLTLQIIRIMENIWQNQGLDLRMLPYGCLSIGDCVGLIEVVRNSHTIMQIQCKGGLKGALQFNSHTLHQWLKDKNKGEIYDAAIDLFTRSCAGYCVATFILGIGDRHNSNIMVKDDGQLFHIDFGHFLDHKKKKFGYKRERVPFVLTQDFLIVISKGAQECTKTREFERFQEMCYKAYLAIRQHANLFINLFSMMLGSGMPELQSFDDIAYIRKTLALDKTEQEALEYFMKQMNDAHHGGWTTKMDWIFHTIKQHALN
# T1 sequence (P27986 whole entry partner): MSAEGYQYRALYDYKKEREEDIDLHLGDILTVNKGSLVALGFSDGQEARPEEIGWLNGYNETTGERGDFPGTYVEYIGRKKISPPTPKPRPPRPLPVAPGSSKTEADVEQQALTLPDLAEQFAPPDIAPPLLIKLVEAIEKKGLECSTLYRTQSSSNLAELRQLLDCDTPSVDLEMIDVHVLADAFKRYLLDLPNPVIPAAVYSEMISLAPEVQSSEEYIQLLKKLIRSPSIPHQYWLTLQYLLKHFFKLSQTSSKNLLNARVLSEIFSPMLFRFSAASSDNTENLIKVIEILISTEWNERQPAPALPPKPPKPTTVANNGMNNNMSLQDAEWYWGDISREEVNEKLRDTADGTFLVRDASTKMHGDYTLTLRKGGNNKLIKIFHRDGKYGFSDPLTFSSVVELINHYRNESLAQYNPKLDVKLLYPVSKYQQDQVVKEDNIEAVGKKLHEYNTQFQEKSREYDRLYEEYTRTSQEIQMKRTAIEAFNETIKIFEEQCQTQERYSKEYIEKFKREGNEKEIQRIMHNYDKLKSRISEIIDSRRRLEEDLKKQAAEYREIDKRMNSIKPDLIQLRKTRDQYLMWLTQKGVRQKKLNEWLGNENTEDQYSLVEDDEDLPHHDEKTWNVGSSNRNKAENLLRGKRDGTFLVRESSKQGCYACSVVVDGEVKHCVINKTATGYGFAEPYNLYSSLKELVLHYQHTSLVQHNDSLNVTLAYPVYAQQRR
# T2 sequence (P28482 whole entry, the tested form may be a part): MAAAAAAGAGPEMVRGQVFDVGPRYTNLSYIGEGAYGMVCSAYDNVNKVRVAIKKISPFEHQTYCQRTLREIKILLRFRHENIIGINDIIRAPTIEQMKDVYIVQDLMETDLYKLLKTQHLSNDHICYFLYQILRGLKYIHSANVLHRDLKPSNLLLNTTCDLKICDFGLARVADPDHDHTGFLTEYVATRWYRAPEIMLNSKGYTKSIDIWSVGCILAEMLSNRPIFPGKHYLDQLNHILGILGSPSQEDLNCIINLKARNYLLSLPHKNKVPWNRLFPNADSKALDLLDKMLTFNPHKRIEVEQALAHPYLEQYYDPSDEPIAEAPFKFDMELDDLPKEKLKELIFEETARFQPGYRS
IC50 (human PI3Kα protein) [nM],IC50 [1] [nM],IC50 [2] [nM],SMILES,IC50 (CHO-K1 cells) [nM]
< 1000,< 1000,< 1000,Cc1nn(C)cc1-c1cnc2ccc(Nc3nnc(C4CCCC4)s3)nc2c1 [Example 0347],≥ 25000
1000 to 10000,< 1000,< 1000,Cc1c(-c2cnc3ccc(Nc4nnc(C5CCCC5)s4)nc3c2)cnn1C [Example 0348],≥ 25000
< 1000,< 1000,< 1000,FC1(F)CCN(CCCn2cc(-c3cnc4ccc(Nc5nnc(C6CCCC6)s5)nc4c3)cn2)C1 [Example 0352],≥ 25000
< 1000,< 1000,< 1000,"COc1c(-c2cnn(C)c2)cnc2ccc(Nc3nnc(C4CCCC4)s3)nc12 [Example 0355, 5-cyclopentyl-N-(8-methoxy-7-(1-methyl-1H-pyrazol-4-yl)-1,5-naphthyridin-2-yl)-1,3,4-thiadiazole-2-amine]",≥ 25000
< 1000,< 1000,< 1000,CC(C)c1nnc(Nc2ccc3ncc(-c4cnn(CCCN5CCCC5)c4)cc3n2)s1 [Example 0365],≥ 25000
< 1000,< 1000,< 1000,CC(C)c1cnnc(Nc2ccc3ncc(-c4cnn(CCCN5CCOCC5)c4)cc3n2)c1 [Example 0368],≥ 25000
< 1000,< 1000,< 1000,"CC(C)c1cnnc(Nc2ccc3ncc(-c4cnn(CCN5CCOCC5)c4)cc3n2)c1 [Example 0382, N-(5-isopropylpyridazin-3-yl)-7-(1-(2-morpholinoethyl)-1H-pyrazol-4-yl)-1,5-naphthyridine-2-amine]",≥ 25000
< 1000,< 1000,< 1000,"Cc1nn(CCCN2CCOCC2)cc1-c1cnc2ccc(Nc3cc(C(C)C)cnn3)nc2c1 [Example 0384, N-(5-isopropylpyridazin-3-yl)-7-(3-methyl-1-(3-morpholinopropyl)-1H-pyrazol-4-yl)-1,5-naphthyridine-2-amine]",≥ 25000
< 1000,< 1000,< 1000,"CC1(C)COc2nnc(Nc3ccc4ncc(-c5cnn(CCCN6CCCC6)c5)cc4n3)cc21 [Example 0401, 5,5-Dimethyl-N-(7-(1-(3-(pyrrolidin-1-yl)propyl)-1H-pyrazol-4-yl)-1,5-naphthyridin-2-yl)-5,6-dihydrofuro[2,3-c]pyridazine-3-amine]",≥ 25000
< 1000,< 1000,< 1000,"CN(C)c1cnnc(Nc2ccc3ncc(-c4cnn(CCCN5CCCC5)c4)cc3n2)c1 [Example 0403, N^5,N^5-dimethyl-N^3-(7-(1-(3-(pyrrolidin-1-yl)propyl)-1H-pyrazol-4-yl)-1,5-naphthyridin-2-yl)pyridazine-3,5-diamine]",≥ 25000
< 1000,< 1000,< 1000,CC(C)c1cnnc(Nc2ccc3ncc(-c4cnn(CCCO)c4)cc3n2)c1 [Example 0473],≥ 25000
< 1000,< 1000,< 1000,CC(C)c1cnnc(Nc2ccc3ncc(-c4cnn(CCC(C)(C)O)c4)cc3n2)c1 [Example 0474],≥ 25000
